In the CheMixHub viscosity set:
± gives the uncertainty stated by the source.

Assay: xn = mol fraction of the nth substance listed

C1COCO1 + CN(C)C=O
viscosity [mPa·s], 101 kPa
Settings	x2 = 0.1012	x2 = 0.2021	x2 = 0.3028	x2 = 0.4032	x2 = 0.5033	x2 = 0.6032	x2 = 0.7028	x2 = 0.8021	x2 = 0.9012
298.15 K	0.567 ± 0.007	0.568 ± 0.007	0.578 ± 0.007	0.594 ± 0.007	0.614 ± 0.007	0.642 ± 0.007	0.676 ± 0.007	0.715 ± 0.008	0.759 ± 0.008
308.15 K	0.506 ± 0.007	0.51 ± 0.007	0.52 ± 0.007	0.535 ± 0.007	0.552 ± 0.007	0.578 ± 0.007	0.606 ± 0.007	0.637 ± 0.007	0.671 ± 0.007
318.15 K	0.467 ± 0.007	0.477 ± 0.007	0.488 ± 0.007	0.5 ± 0.007	0.515 ± 0.007	0.534 ± 0.007	0.555 ± 0.007	0.576 ± 0.007	0.597 ± 0.007

O=S(Cl)Cl + CCOCC
298.15 K, 101 kPa
Settings	viscosity [mPa·s]
x1 = 0.334	0.3365 ± 0.0088
x1 = 0.845	0.548 ± 0.014

CCCOCC(C)O (stereo not given) + CCN(CC)CC
viscosity [mPa·s], 100 kPa
Settings	298.15 K	303.15 K	308.15 K
x1 = 0.0502	0.4177 ± 0.15	0.3933 ± 0.15	0.3699 ± 0.15
x1 = 0.1001	0.4846 ± 0.15	0.4496 ± 0.15	0.4206 ± 0.15
x1 = 0.1501	0.5523 ± 0.15	0.5096 ± 0.15	0.476 ± 0.15
x1 = 0.2016	0.6258 ± 0.15	0.5726 ± 0.15	0.5332 ± 0.15
x1 = 0.3	0.7805 ± 0.15	0.7042 ± 0.15	0.6523 ± 0.15
x1 = 0.4	0.9537 ± 0.15	0.8515 ± 0.15	0.7863 ± 0.15
x1 = 0.5	1.153 ± 0.15	1.017 ± 0.15	0.9326 ± 0.15
x1 = 0.5998	1.382 ± 0.15	1.207 ± 0.15	1.102 ± 0.15
x1 = 0.6999	1.625 ± 0.15	1.406 ± 0.15	1.281 ± 0.15
x1 = 0.7996	1.887 ± 0.15	1.629 ± 0.15	1.474 ± 0.15
x1 = 0.8998	2.169 ± 0.15	1.87 ± 0.15	1.682 ± 0.15
x1 = 0.9499	2.304 ± 0.15	1.973 ± 0.15	1.775 ± 0.15

CCCCCCCC/C=C\CCCCCCCC(=O)OCC(COC(=O)CCCCCCC/C=C\CCCCCCCC)OC(=O)CCCCCCC/C=C\CCCCCCCC + c1ccccc1
viscosity [mPa·s], 101.3 kPa
Settings	x1 = 0.000368	x1 = 0.000535	x1 = 0.001078	x1 = 0.002049	x1 = 0.004187	x1 = 0.006457	x1 = 0.008697	x1 = 0.01009
298.15 K	0.613 ± 0.0042	0.6159 ± 0.0042	0.6281 ± 0.0043	0.6494 ± 0.0044	0.7009 ± 0.0047	0.7579 ± 0.005	0.8092 ± 0.0053	0.8347 ± 0.0054
303.15 K	0.572 ± 0.004	0.5754 ± 0.004	0.5855 ± 0.004	0.6052 ± 0.0042	0.6529 ± 0.0044	0.7052 ± 0.0047	0.7525 ± 0.005	0.7753 ± 0.0051
308.15 K	0.5349 ± 0.0038	0.5384 ± 0.0038	0.5476 ± 0.0038	0.5658 ± 0.0039	0.6095 ± 0.0042	0.6577 ± 0.0044	0.7013 ± 0.0047	0.7219 ± 0.0048

Cc1cccc(C)n1 + CCO
298.15 K, 101 kPa
Settings	viscosity [mPa·s]
x1 = 0.0454	1.15 ± 0.019
x1 = 0.09639	1.164 ± 0.019
x1 = 0.2211	1.202 ± 0.02
x1 = 0.3891	1.133 ± 0.019
x1 = 0.6241	1.02 ± 0.017
x1 = 0.8038	0.9686 ± 0.016

O=S(Cl)Cl + CCOC(C)=O
298.15 K, 101 kPa
Settings	viscosity [mPa·s]
x1 = 0.225	0.4911 ± 0.013
x1 = 0.316	0.5174 ± 0.013
x1 = 0.534	0.5759 ± 0.015
x1 = 0.7	0.6117 ± 0.016
x1 = 0.83	0.6177 ± 0.016
